# Data published in patent US20230203063A1, “TRICYCLIC PYRIDONES AND PYRIMIDONES” (Erasca, Inc., priority 2019, published 2023).
# Biological target: T1, mutant G12C K-RAS (Homo sapiens, UniProt P01116, G12C)
# T1 construct: made in house; host or cells: E. coli BL21
# Test: covalent adduct formation (CAF) with mutant G12C K-RAS
# Type: binding
# Set-up: covalent adduct formation (CAF): unit not given here
# Conditions: Table 1; 10 micromolar, after 60 minutes
# Method: Embodiments disclosed herein are further illustrated by the following examples in Tables 1-4 and the Examples hereinbelow. The Tables indicate the compound number, structure, the observed mass spectral molecular weight peak, and covalent adduct formation (CAF) with a mutant G12C K-RAS after 60 minutes at a concentration of 10 micromolar.
row,% CAF(60 min) [%],SMILES
1,67.4,"C=CC(=O)N1CCN(c2nc(=O)n3c4c(c(-c5c(C)ccc6[nH]ncc56)c(Cl)cc24)OCC3)CC1 [Example 3, 7-(4-acryloylpiperazin-1-yl)-9-chloro-10-(5-methyl-1H-indazol-4-yl)-2H-[1,4]oxazino[2,3,4-ij]quinazolin-5(3H)-one]"

# Same assay, conditions: Table 4; 10 micromolar, after 60 minutes
row,% CAF(60 min) [%],SMILES
1,0,"C=CC(=O)N1C[C@H](C)N(c2c(C#N)c(=O)n3c4c(c(-c5ccc(F)cc5F)ccc24)OC[C@@H]3CN(C)C)C[C@H]1C [Example 51, (S)-7-((2S,5R)-4-acryloyl-2,5-dimethylpiperazin-1-yl)-10-(2,4-difluorophenyl)-3-((dimethylamino)methyl)-5-oxo-3,5-dihydro-2H-[1,4]oxazino[2,3,4-ij]quinoline-6-carbonitrile]"
2,0,"C=CC(=O)N1C[C@H](C)N(c2c(C#N)c(=O)n3c4c(c(-c5ccc(F)cc5F)ccc24)OC[C@H]3CN(C)C)C[C@H]1C [Example 52, (R)-7-((2S,5R)-4-acryloyl-2,5-dimethylpiperazin-1-yl)-10-(2,4-difluorophenyl)-3-((dimethylamino)methyl)-5-oxo-3,5-dihydro-2H-[1,4]oxazino[2,3,4-ij]quinoline-6-carbonitrile]"

# Same assay, conditions: Table 6; 10 uM, 1 h
row,"% CAF @ 10 uM, 1 h [%]",SMILES
1,0,"C=CC(=O)N1C[C@H](C)N(c2nc(=O)n3c4c(c(-c5c(C)ccc6[nH]ncc56)c(Cl)cc24)OC[C@H]3CCCN2C[C@@H]3C[C@H]2CO3)C[C@H]1C [Example 325, (3R,10S)-3-(3-((1S,4S)-2-oxa-5-azabicyclo[2.2.1]heptan-5-yl)propyl)-7-((2S,5R)-4-acryloyl-2,5-dimethylpiperazin-1-yl)-9-chloro-10-(5-methyl-1H-indazol-4-yl)-2,3-dihydro-5H-[1,4]oxazino [2,3,4-ij] quinazolin-5-one]"
2,0,"C=CC(=O)N1C[C@H](C)N(c2nc(=O)n3c4c(c(-c5c(O)cccc5F)c(Cl)cc24)OC[C@@H]3CN2CCC(F)(F)C2)C[C@H]1C [Example 220, (3S,10R)-7-((2S,5R)-4-acryloyl-2,5-dimethylpiperazin-1-yl)-9-chloro-3-((3,3-difluoropyrrolidin-1-yl)methyl)-10-(2-fluoro-6-hydroxyphenyl)-2,3-dihydro-5H-[1,4]oxazino[2,3,4-ij]quinazolin-5-one]"
3,0,"C=CC(=O)N1C[C@H](C)N(c2nc(=O)n3c4c(c(-c5c(O)cccc5F)c(Cl)cc24)OC[C@H]3CN2CCN(C)CC2)C[C@H]1C (atropisomer, axis not shown) [Example 300, (3R,10R)-7-((2S,5R)-4-acryloyl-2,5-dimethylpiperazin-1-yl)-9-chloro-10-(2-fluoro-6-hydroxyphen-yl)-3-((4-methylpiper-azin-1-yl)methyl)-2,3-dihydro-5H-[1,4]-oxazino[2,3,4-ij]-quinazolin-5-one]"
4,0,"C=CC(=O)N1C[C@H](C)N(c2nc(=O)n3c4c(c(-c5c(O)cccc5F)c(Cl)cc24)OC[C@H]3CN(C)CC(F)(F)F)C[C@H]1C (atropisomer, axis not shown) [Example 241, (3R,10R)-7-((2S,5R)-4-acryloyl-2,5-dimethylpiperazin-1-yl)-9-chloro-10-(2-fluoro-6-hydroxyphen-yl)-3-((methyl(2,2,2-trifluoroethyl)amino)-methyl)-2H-[1,4]-oxazino[2,3,4-ij]-quinazolin-5(3H)-one]"
5,0,"C=CC(=O)N1C[C@H](C)N(c2nc(=O)n3c4c(c(-c5c(F)ccc6[nH]cnc56)ccc24)OCC3)C[C@H]1C [Example 201, 7-((2S,5R)-4-acryloyl-2,5-dimethylpiperazin-1-yl)-10-(5-fluoro-1H-benzo[d]imidazol-4-yl)-2,3-dihydro-5H-[1,4]oxazino[2,3,4-ij]quinazolin-5-one]"
6,0,"C=CC(=O)N1C[C@H](C)N(c2nc(=O)n3c4c(c(-c5c(O)cccc5F)c(Cl)cc24)OC[C@@H]3CN2CCN(C)CC2)C[C@H]1C (atropisomer, axis not shown) [Example 305, (3S,10R)-7-((2S,5R)-4-acryloyl-2,5-dimethylpiperazin-1-yl)-9-chloro-10-(2-fluoro-6-hydroxyphen-yl)-3-((4-methylpiper-azin-1-yl)methyl)-2,3-dihydro-5H-[1,4]-oxazino[2,3,4-ij]-quinazolin-5-one]"
7,0,"C=CC(=O)N1C[C@H](C)N(c2nc(=O)n3c4c(c(-c5ccccc5C(F)(F)F)c(Cl)cc24)OCC3)C[C@H]1C [Example 197, 7-((2S,5R)-4-acryloyl-2,5-dimethylpiperazin-1-yl)-9-chloro-10-(2-(trifluoromethyl)phenyl)-2,3-dihydro-5H-[1,4]oxazino[2,3,4-ij]quinazolin-5-one]"
8,0,"C=CC(=O)N1C[C@H](C)N(c2nc(=O)n3c4c(c(-c5c(F)ccc6cc[nH]c(=O)c56)ccc24)OCC3)C[C@H]1C [Example 224, 7-((2S,5R)-4-acryloyl-2,5-dimethylpiperazin-1-yl)-10-(7-fluoro-1-oxo-1,2-dihydroisoquinolin-8-yl)-2,3-dihydro-5H-[1,4]oxazino[2,3,4-ij]quinazolin-5-one]"
9,0,"C=CC(=O)N1C[C@H](C)N(c2nc(=O)n3c4c(c(-c5c(C)ccc6[nH]ncc56)c(Cl)cc24)OC[C@H]3Cn2cccn2)C[C@H]1C (atropisomer, axis not shown) [Example 319, (3R,10S)-3-((1H-pyrazol-1-yl)methyl)-7-((2S,5R)-4-acryloyl-2,5-dimethylpiperazin-1-yl)-9-chloro-10-(5-methyl-1H-indazol-4-yl)-2,3-dihydro-5H-[1,4]oxazino[2,3,4-ij]-quinazolin-5-one]"
10,0,"C=CC(=O)N1C[C@H](C)N(c2nc(=O)n3c4c(c(-c5c(F)ccc6c5C(=O)NC6)ccc24)OCC3)C[C@H]1C [Example 231, 7-((2S,5R)-4-acryloyl-2,5-dimethylpiperazin-1-yl)-10-(5-fluoro-3-oxoisoindolin-4-yl)-2,3-dihydro-5H-[1,4]oxazino[2,3,4-ij]quinazolin-5-one]"
11,0,"C=CC(=O)N1CCN(c2nc(=O)n3c4c(c(-c5c(O)cccc5F)c(Cl)cc24)OC[C@H]3CN2CCC(F)(F)C2)[C@@H](C)C1 (atropisomer, axis not shown) [Example 227, (3R,10R)-7-((S)-4-acryloyl-2-methyl-piperazin-1-yl)-9-chloro-3-((3,3-difluoropyrrolidin-1-yl)methyl)-10-(2-fluoro-6-hydroxyphenyl)-2,3-dihydro-5H-[1,4]-oxazino-[2,3,4-ij]-quinazolin-5-one]"

row,SMILES,"% CAF @ 10 uM, 1 h [%]"
1,"C=CC(=O)N1C[C@H](C)N(c2nc(=O)n3c4c(c(-c5ccc(F)cc5F)c(Cl)cc24)OC[C@H]3CCCN2C3CCC2CN(C)C3)C[C@H]1C [Example 321, (3R)-7-((2S,5R)-4-acryloyl-2,5-dimethylpiperazin-1-yl)-9-chloro-10-(2,4-difluorophenyl)-3-(3-(3-methyl-3,8-diazabicyclo[3.2.1]octan-8-yl)propyl)-2,3-dihydro-5H-[1,4]oxazino [2,3,4-ij] quinazolin-5-one]",71.2

# Same assay, conditions: Table 7; 10 micromolar, after 60 minutes
row,covalent adduct formation (CAF),SMILES
1,96.9,"C=CC(=O)N1CCN(c2nc(=O)n3c4c(c(-c5c(F)cc(F)cc5F)c(Cl)cc24)SC[C@@H]3CCCN2C[C@@H]3C[C@H]2CO3)[C@@H](C)C1 [Example 340, (S)-3-(3-((1S,4S)-2-oxa-5-azabicyclo-[2.2.1]heptan-5-yl)-propyl)-7-((S)-4-acryloyl-2-methyl-piperazin-1-yl)-9-chloro-10-(2,4,6-trifluorophenyl)-2H-[1,4]thiazino[2,3,4-ij]-quinazolin-5(3H)-one]"
